Source: patent US11213514B2, “Alpha-1-adrenergic receptor agonist therapy” (The Regents of the University of California, priority 2016, dated 2022)

How the values were obtained:
women = settings: cited from earlier work
wild type mice [1] = experiment: Tail cuff blood pressure and heart rate in uninjured mice; type: in vivo, mouse; settings: any dose 1-100 μg/kg/day, gavage twice daily for 5 days
Description: (§1) FIGS. 1A-1C. […] FIG. 1A. Blood pressure (BP) and heart rate (HR) were measured non-invasively in male mice for 10 consecutive days using a CODA Volume Pressure Recording tail cuff system (Kent Scientific). All daily values represent the average of at least 20 cuff inflations. Mice were acclimatized to the apparatus for the first 5 days, during which no drug was administered. […] FIG. 1B. […] Heart weight (HW, in mg) was indexed to tibia length (TL, in mm). FIG. 1C. Quantitative RT-PCR was performed using heart tissue snap frozen at the time of sacrifice. Target transcripts (ANP=atrial natriuretic peptide; MHCβ=myosin heavy chain beta; α-skAct=alpha skeletal actin) were quantified relative to two standard transcripts (Polr2a=DNA-directed RNA polymerase II, subunit A; TBP=TATA-binding protein).
Untreated mice were trained on the tail cuff apparatus daily for 5 days.
Tail cuff blood pressure (BP) and heart rate (HR) were obtained on awake mice by repeated measurements using a CODA Volume Pressure Recording tail cuff system (Kent Scientific).2 Mice were trained to the apparatus for 5 days prior to data collection. Systolic BP and HR measurements represent the average of at least 20 tail cuff inflations per mouse each afternoon.

rabbits = settings: 10 μg/kg; cited from earlier work
mouse heart = experiment: Pressure overload cardiomyopathy caused by transverse aortic constriction; type: in vivo; settings: mice, TAC day 0, osmotic minipumps from 4 weeks; both doses 20 ug/kg/d and 200 ug/kg/d; day 55
Description: FIG. 8. […] Cardiac function was measured before TAC, and every 2 weeks, using echocardiography.

wild type mice [2] = experiment: Indexed heart weight after 7-day gavage treatment in uninjured mice; type: in vivo, mouse; settings: for Body weight, final / Heart weight / Heart weight/tibia length / Heart/body weight: uninjured wild type mice, 7 days
Description: as §1

[3] = test system: atrial natriuretic peptide, beta myosin heavy chain, alpha-skeletal actin transcripts; experiment: qRT-PCR of molecular markers of hypertrophy in mouse hearts; type: in vivo; settings: hearts of mice treated with dabuzalgron
Description: as §1
We used qRT-PCR to assay traditionally accepted molecular markers of hypertrophy in the hearts of mice treated with dabuzalgron. There was no change in the transcript abundance of atrial natriuretic peptide, beta myosin heavy chain, or alpha-skeletal actin. (FIG. 1C)
Total RNA was isolated from cells and tissue (QiagenRNeasy Plus mini kit #74134) and analyzed using a NanoDrop (ThermoScientific). For qRT-PCR, one […]g of RNA was reverse transcribed using High Capacity cDNA Reverse Transcription Kit (Life Technologies #4368814). Two step qRT-PCR reactions contained 2% of the cDNA product. All reactions were performed in triplicate in a Roche 480 Light Cycler. Relative quantitation of PCR products used the ΔΔCt method relative to two validated reference genes (Tbp and Polr2a). Similar efficiencies were confirmed for all primers. All probes and primers were from Roche.

pigs = settings: 10 μg/kg; cited from earlier work
ERK = ERK activation in neonatal rat ventricular myocytes (pERK/ERK Western blot); type: cell-based; settings: Rattus norvegicus, Ventricular myocyte; uninjured NRVMs, 15 minutes, propranolol pre-treatment; read-out: EC50, ERK phosphorylation
Excerpt: FIGS. 4A-4F. […] The reaction was stopped immediately and lysates were blotted for total and phospho-ERK (pERK). FIG. 4A. Representative Western blot. FIG. 4B. […] FIG. 4C. Summary of pERK/ERK for experiments using 5 different NRVM isolations. The average pERK/ERK ratio for each experiment was derived from at least 2 individual wells and normalized to the pERK/ERK ratio for vehicle treated NRVMs. FIG. 4D and FIG. 4E. […] Heart lysates were blotted for pERK and ERK. Results were compared using one way ANOVA with Tukey post-test. FIG. 4F.
Dabuzalgron protects neonatal rat ventricular myocytes from cell death due to doxorubicin. […] (FIG. 4C).
Female Sprague-Dawley rats were from Charles River. NRVMs were isolated as previously described.7 Briefly, hearts from 1-2 day old rat pups were minced, digested serially in collagenase (Worthington)-containing solution, filtered, then pre-plated to exclude non-myocyotes. NRVMs were then plated on laminin-coated dishes in DMEM with 5% fetal bovine serum (Sigma F2442) for 24 hours. Experiments were carried out after 36-96 hours of serum starvation in the presence of insulin, transferrin, and BrdU. […]
All results are presented as mean±SEM. […] EC50 for ERK activation was calculated using sigmoidal dose-response analysis (Prism).

[4] = human, 1.5 mg by mouth twice daily
[5] = any dose 1-100 μg/kg/day, gavage twice daily for 7 days

In the case of Cc1c(OCC2=NCCN2)ccc(Cl)c1NS(C)(=O)=O [dabuzalgron, N-[6-chloro-3-(4,5-dihydro-1H-imidazol-2-ylmethoxy)-2-methylphenyl]methanesulfonamide], the BP (women; [4]) is listed as “did not alter”, the HR (women; [4]) is listed as “did not alter” and the “difference in urinary incontinence between dabuzalgron and placebo groups” value (women; interim analysis of the Phase 2 trials) is listed as “no clinically meaningful difference”. The “changes in BP” value (women; subjects who received dabuzalgron in any of these trials) was “no significant changes”, the tolerability (women; total of 1,223 women, Phase 1, two Phase 2 trials and open-label study) was “well tolerated” and the HR vs vehicle (wild type mice [1]) was “no difference”. For the same compound, the “systolic BP vs vehicle” value (wild type mice [1]) was “no difference”, the “effect on BP” value (rabbits) was “no effect” and the “cardiac function (fractional shortening) compared with vehicle” value (mouse heart) was “significant improvement”. For the same compound, the “change in body weight” value (wild type mice [2]; [5]) was “no measurable change”, the “change in heart weight” value (wild type mice [2]; [5]) was “no measurable change” and the “Body weight, final” value (wild type mice [2]; 0.2 μg/kg/day gavage) was 25.3 ± 0.4 g. The Heart weight (wild type mice [2]; 0.2 μg/kg/day gavage) was 106 ± 4 mg, the Heart weight/tibia length (wild type mice [2]; 0.2 μg/kg/day gavage) was 6.1 ± 0.3 mg/mm and the Heart/body weight (wild type mice [2]; 0.2 μg/kg/day gavage) was 0.42 ± 0.01%. The “Body weight, final” value (wild type mice [2]; 2 μg/kg/day gavage) was 25.9 ± 0.8 g, the Heart weight (wild type mice [2]; 2 μg/kg/day gavage) was 106 ± 4 mg and the Heart weight/tibia length (wild type mice [2]; 2 μg/kg/day gavage) was 6.1 ± 0.2 mg/mm. The Heart/body weight (wild type mice [2]; 2 μg/kg/day gavage) was 0.41 ± 0.02%, the “Body weight, final” value (wild type mice [2]; 20 μg/kg/day gavage) was 27.3 ± 1.1 g and the Heart weight (wild type mice [2]; 20 μg/kg/day gavage) was 110 ± 4 mg. The Heart weight/tibia length (wild type mice [2]; 20 μg/kg/day gavage) was 5.9 ± 0.2 mg/mm, the Heart/body weight (wild type mice [2]; 20 μg/kg/day gavage) was 0.41 ± 0.01% and the “Body weight, final” value (wild type mice [2]; 200 μg/kg/day gavage) was 27.4 ± 1.6 g. The Heart weight (wild type mice [2]; 200 μg/kg/day gavage) was 113 ± 6 mg, the Heart weight/tibia length (wild type mice [2]; 200 μg/kg/day gavage) was 6.1 ± 0.3 mg/mm and the Heart/body weight (wild type mice [2]; 200 μg/kg/day gavage) was 0.41 ± 0.01%. The “transcript abundance of alpha-skeletal actin” value [3] was “no change”, the “transcript abundance of atrial natriuretic peptide” value [3] was “no change” and the “transcript abundance of beta myosin heavy chain” value [3] was “no change”. For the same compound, the “effect on BP” value (pigs) was “no effect” and the EC50 (ERK) was 480 nM.
